Where two headings read alike, the source gives them in different places. Some results are limits rather than exact numbers.

Assay [1] deals with RNAP II occupancy at ACTB gene. Description: RNAP II (POLR2A) ChIP-qPCR along the ACTB gene. The format is cell-based, human. The settings on record: 72 h; for POLR2A ChIP-qPCR, ACTB position 332 / POLR2A ChIP-qPCR, ACTB position 1671 / POLR2A ChIP-qPCR, ACTB position 2911 / POLR2A ChIP-qPCR, ACTB position 3560 / POLR2A ChIP-qPCR, ACTB position 3752 / POLR2A ChIP-qPCR, ACTB position 4657 / POLR2A ChIP-qPCR, ACTB position 5590 / POLR2A ChIP-qPCR, ACTB position -72: HEK293, 20 μM; for occupancy levels of RNAP II at the promoter regions and 3′-end of the ACTB gene: HEK293 cells, 20 µM. How it is done: ChIP was performed using the EZ-ChIP™ A - Chromatin Immunoprecipitation Kit (Millipore, 17-371) according to the manufacturer’s instruction. Antibodies were used with a range of 1–2 μg, and IgG (Millipore, polyclonal antibody, 12-370) was used as a background control. After immunoprecipitation, genomic DNA was de-crosslinked in ChIP elution buffer containing 5 M NaCl at 65 °C overnight and purified with the Qiaex II kit (Qiagen, 20021), and eluted in water for PCR amplification. Immunoprecipitated and input DNAs were used as templates for qPCR. The qPCR primer sequences for ACTB gene are the same as described earlier[9] and shown in the Supplementary Table 2. For analysis of SMN chemical antagonists, HEK293 cells were treated with DMSO, compound 1 or compound 2 (a final concentration of 20 μM) for 72 h, before processing for ChIP.

Another assay deals with T1, SMN Tudor domain (Homo sapiens, UniProt Q16637).
T1 construct: SMN (aa 82–147); His (N, cleaved yes); made in house; host or cells: E. coli BL21 (DE3) Codon plus RIL
Description: ITC binding to Tudor domain of SMN. From the text: The coding DNA fragments of following Tudor domains were cloned into pET28-MHL vector: SMN (aa 82–147), UHRF1 (aa 126–285), SMNDC1 (aa 53–130), TDRD3 (aa 554–611), SND1 (aa 650–910), TDRD2 (aa 327–420), FXR1 (aa 2–132), PHF1 (aa 28–87), SGF29 (aa 115–293), JMJD2A (aa 897–1101), 53BP1 (aa 1483–1606), SETDB1 (aa 190–410), LBR (aa 1–67), ZGPAT (aa 120–271). The coding regions of chromodomain of CBX7 (aa 8–62), PWWP domain of DNMT3A (aa 275–417), WD40 repeats of WDR5 (aa 24–334) and CW domain of ZCWPW2 (aa 21–78) were also subcloned into pET28-MHL vector to generate N-terminally His-tagged fusion protein. The MBT repeats of L3MBTL1 (aa 200–522) and L3MBTL2 (aa 170–625) were subcloned into pET28GST-LIC vector to generate N-terminally GST-His-tagged fusion protein. All the plasmids were generated by ligase independent cloning (Vazyme Biotech, C112 or ABclonal Technology, RK21020). […] The proteins were further purified by Superdex75 or Superdex200 gel-filtration column (GE Healthcare) in a buffer containing 20 mM Tris-HCl, pH 7.5, 150 mM NaCl and 1 mM DTT. For crystallization experiments, purified proteins were concentrated to 18 mg/mL for SMN, 23 mg/mL for UHRF1 and 10 mg/mL for TDRD3 in the gel-filtration buffer. All the mutations were introduced with the QuikChange II XL site-directed mutagenesis kit (Stratagene, 200522) and confirmed by DNA sequencing. Mutant proteins were also expressed in E. coli BL21 (DE3) Codon plus RIL and purified using the same procedures described above. The molecular weight of all protein samples was measured by mass spectrometry.
For the ITC measurement, the concentrated proteins were diluted into 20 mM Tris-HCl, pH 7.5, 150 mM NaCl (ITC buffer); the lyophilized compounds were dissolved in the same buffer, and the pH value was adjusted by adding 2 M NaOH or 2 M HCl. The compounds that could not be dissolved in the ITC buffer were dissolved in DMSO with the accessible highest concentration. Compound concentrations were calculated from the mass and the volume of the solvent. For the ITC assay with compound dissolved in DMSO, the protein was diluted by ITC buffer containing same final concentration of DMSO. All measurements were performed in duplicate at 25 °C, using a VP-ITC (MicroCal, Inc.), an iTC-200 (MicroCal, Inc.), or a Nano-ITC (TA, Inc.) microcalorimeter. The protein with a concentration of 50–100 μM was placed in the cell chamber, and the compounds with a concentration of 0.5–2 mM in syringe was injected in 25, 20, or 20 successive injections with a spacing of 180, 150, or 120 s for VP-ITC, iTC-200, or Nano-ITC, respectively, as previously described[30]–[32]. iTC-200 or Nano-ITC data were consistent with those from the VP-ITC instrument, based on ITC results of SMN-compound 1 detected by using all the instruments. Control experiments were performed under identical conditions to determine the heat signals that arise from injection of the compounds into the buffer. Data were fitted using the single-site binding model within the Origin software 7.0 package (MicroCal, Inc.) or the independent model within the Nano-Analyze software package (TA, Inc.).

Setting [2] is: ITC, Tudor domain of SMN wild type, 25 °C, read-out: Kd (SMN).

T1 sequence (Q16637 82-147): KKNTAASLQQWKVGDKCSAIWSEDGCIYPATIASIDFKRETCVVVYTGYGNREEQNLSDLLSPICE

`Cn1c2c(c(=N)c3c1CCC3)CCC2` [Compound 1, 4-methyl-2,3,4,5,6,7-hexahydrodicyclopenta[b,e]pyridin-8(1H)-imine]: in assay [1], the “POLR2A ChIP-qPCR, ACTB position 332” value was 0.1628; the “POLR2A ChIP-qPCR, ACTB position 1671” value was found to be 0.1331; the “POLR2A ChIP-qPCR, ACTB position 2911” value came to 0.08894; the “POLR2A ChIP-qPCR, ACTB position 3560” value worked out at 0.1246. In addition, in assay [1], the “POLR2A ChIP-qPCR, ACTB position 3752” value was determined as 0.2307; the “POLR2A ChIP-qPCR, ACTB position 4657” value came out at 0.1056; the “POLR2A ChIP-qPCR, ACTB position 5590” value was determined as 0.1381; the “POLR2A ChIP-qPCR, ACTB position -72” value is 0.4274. The “occupancy levels of RNAP II at the promoter regions and 3′-end of the ACTB gene” value in assay [1] is reported as “significantly increased”. Further, at SMN Tudor domain (setting [2]), the dissociation constant (Kd) worked out at 2.6 ± 0.1 µM. The Kd on SMN Tudor domain (Supplementary Fig. 11a, iTC-200, read-out: Kd, ITC binding curve, SMN) was 3.9 ± 0.5 µM. Moreover, at SMN Tudor domain (from ITC Kd), the “selectivity of SMN and SMNDC1 Tudor domains over TDRD3” value was ~ 4 fold; the “selectivity over other tested methyllysine or methylarginine binding domains” value is reported as more than 4 fold. For the same molecule, the “SMN binds more tightly than its physiological ligands” value on SMN Tudor domain (versus symmetric dimethylarginine or R1810me2s-POLR2A) is recorded as 60–180 fold.

As for `CCCn1c2c(c(=N)c3c1CCC3)CCC2` [Compound 2, 4-propyl-2,3,4,5,6,7-hexahydrodicyclopenta[b,e]pyridin-8(1H)-imine], in assay [1], the “POLR2A ChIP-qPCR, ACTB position 332” value is reported as 0.1333; the “POLR2A ChIP-qPCR, ACTB position 1671” value was found to be 0.1287; the “POLR2A ChIP-qPCR, ACTB position 2911” value was 0.06481; the “POLR2A ChIP-qPCR, ACTB position 3560” value came to 0.09661. Also, in assay [1], the “POLR2A ChIP-qPCR, ACTB position 3752” value turned out to be 0.2124; the “POLR2A ChIP-qPCR, ACTB position 4657” value worked out at 0.1677; the “POLR2A ChIP-qPCR, ACTB position 5590” value was found to be 0.1104; the “POLR2A ChIP-qPCR, ACTB position -72” value stood at 0.5589. Also, the “occupancy levels of RNAP II at the promoter regions and 3′-end of the ACTB gene” value in assay [1] was “significantly increased”. At SMN Tudor domain (setting [2]), the equilibrium dissociation constant (Kd) came out at 9.3 ± 0.6 µM.

For the origin of these results see paper PMC9481570, “A small molecule antagonist of SMN disrupts the interaction between SMN and RNAP II” (Nature Communications, 2022).
